Data reported in patent US12559474B2, “Triazine derivatives having virus replication inhibitory activity and pharmaceutical composition comprising the same” (priority 2021, dated 2026).
Where two headings read alike, the source gives them in different places.

Key:
SARS-CoV-2 3CL protease = SARS-CoV-2 3CL protease (Severe acute respiratory syndrome coronavirus 2, UniProt P0DTD1); assay: biochemical; settings: 50% SARS-CoV-2 3CL protease inhibitory concentration, read-out: IC50
SARS-CoV-2 = assay: microbe, parasite or virus in culture; type: cell-based; settings: Severe acute respiratory syndrome coronavirus 2, VeroE6/TMPRSS2, 72 h, 50% SARS-CoV-2 infected cell death inhibitory concentration, VeroE6/TMPRSS2 cells, 3 days culture

SMILES	IC50 (SARS-CoV-2 3CL protease; given as class symbols)	EC50 (SARS-CoV-2; class symbols)	IC50 (SARS-CoV-2 3CL protease; RapidFire MS)	EC50 (SARS-CoV-2; CellTiter-Glo 2.0)
CC(C)(C)OC(=O)Nc1nc2cc(Cl)c(Nc3nc(=O)n(Cc4ccc[nH]c4=O)c(=O)n3Cc3cc(F)c(F)c(F)c3)cc2s1 [Compound I-0466]	< 100 nM	< 1000 nM		
CNc1nc2cc(Cl)c(Nc3nc(=O)n(Cc4ncn(C)n4)c(=O)n3Cc3cc(F)c(F)cc3F)cc2s1 [II-0048]	< 100 nM	< 1000 nM		
CCn1cc2cc(Nc3nc(=O)n(-c4cncc(C)c4)c(=O)n3Cc3cc(Cl)c(F)cn3)c(Cl)cc2n1 [II-0494]			24 nM	878 nM
Cn1cnc(Cn2c(=O)nc(Nc3cc4cn(C)nc4cc3F)n(Cc3cc(F)c(F)cc3F)c2=O)n1 [II-0519]	< 100 nM	1000 to 10000 nM		
Cc1cncc(-n2c(=O)nc(N(C)c3cc4cn(C)nc4cc3Cl)n(Cc3cc(F)c(F)c(F)c3)c2=O)c1 [II-0483]			1800 nM	20900 nM
Cc1cc(F)cc(Cn2c(Nc3cc4cn(C)nc4cc3Cl)nc(=O)n(-c3cncc(C)c3)c2=O)c1 [II-0212]	< 100 nM	< 1000 nM		
CC(=O)Nc1nc2cc(F)c(Nc3nc(=O)n(-c4cncc(C)c4)c(=O)n3Cc3ccc(F)c(C#N)c3)cc2s1 [II-0011]	< 100 nM	1000 to 10000 nM		
COc1ccc(Nc2nc(=O)n(Cc3c[nH]c(=O)[nH]c3=O)c(=O)n2Cc2cc(F)c(F)c(F)c2)c(Cl)c1 [Compound I-0404]	< 100 nM	1000 to 10000 nM		
Cc1cncc(-n2c(=O)nc(Nc3cc4cn(CC(F)F)nc4cc3Cl)n(Cc3cc(Cl)c(F)cn3)c2=O)c1 [II-0586]	< 100 nM	< 1000 nM		
Cc1cncc(-n2c(=O)nc(Nc3cc4cn(C)nc4cc3Cl)n(Cc3cc(C#N)ccc3[N+](=O)[O-])c2=O)c1 [II-0580]	< 100 nM	< 1000 nM		
O=c1[nH]cccc1Cn1c(=O)nc(Nc2ccc3c(c2)CCCO3)n(Cc2cc(F)c(F)c(F)c2)c1=O [Compound I-0019]	< 100 nM	1000 to 10000 nM		
CC(C)Nc1nc2cc(Cl)c(Nc3nc(=O)n(Cc4ncn(C)n4)c(=O)n3Cc3cc(F)c(F)cc3F)cc2s1 [II-0037]	< 100 nM	1000 to 10000 nM		
Cc1cncc(-n2c(=O)nc(Nc3ccc4nn(C)nc4c3)n(Cc3cc(F)c(F)c(F)c3)c2=O)c1 [II-0221]	< 100 nM	1000 to 10000 nM		
Cn1cnc(Cn2c(=O)nc(Nc3cc4c(C(F)F)n(C)nc4cc3Cl)n(Cc3cc(F)c(F)cc3F)c2=O)n1 [II-0514]	< 100 nM	1000 to 10000 nM		
Cc1cncc(-n2c(=O)nc(Nc3cc4cn(CC(F)F)nc4cc3F)n(Cc3ccc(F)c(C#N)c3)c2=O)c1 [II-0439]	< 100 nM	< 1000 nM		
Cc1cncc(-n2c(=O)nc(Nc3cc4cn(C)nc4cc3Cl)n(Cc3cc(C#N)c(F)cc3C)c2=O)c1 [II-0015]			1.5 nM	35 nM
O=c1nc(Nc2cc3sc(NC4CC4)nc3cc2Cl)n(Cc2cc(Cl)c(F)cc2F)c(=O)n1Cc1ncccn1 [II-0237]	< 100 nM	< 1000 nM		
CNc1nc2cc(Cl)c(Nc3nc(=O)n(Cc4ccc[nH]c4=O)c(=O)n3Cc3cc(F)c(F)c(F)c3)cc2s1 [Compound I-0467]	< 100 nM	1000 to 10000 nM		
Cn1ccc(-c2ccnc(Cn3c(=O)nc(Nc4cc5cn(C)nc5cc4Cl)n(Cc4cc(F)c(F)cc4F)c3=O)n2)n1 [II-0250]	< 100 nM	1000 to 10000 nM		

SMILES	IC50 (SARS-CoV-2 3CL protease; given as class symbols)	EC50 (SARS-CoV-2; class symbols)	IC50 (SARS-CoV-2 3CL protease; RapidFire MS)	EC50 (SARS-CoV-2; CellTiter-Glo 2.0)
N#Cc1cc(Cn2c(Nc3ccc4nc(NCC(F)F)sc4c3)nc(=O)n(-c3cncc(Cl)c3)c2=O)ccc1F [II-0129]	< 100 nM	1000 to 10000 nM		
O=c1[nH]cccc1Cn1c(=O)nc(Nc2cc3cn(CCCOC(F)(F)F)nc3cc2Cl)n(Cc2cc(F)c(F)c(F)c2)c1=O [Compound I-0400]	< 100 nM	1000 to 10000 nM		
Cc1cncc(-n2c(=O)nc(Nc3cc4cn(C5CCOCC5)nc4cc3Cl)n(Cc3ccc(F)c(C#N)c3)c2=O)c1 [II-0096]	< 100 nM	< 1000 nM		
COc1ccc(Nc2nc(=O)n(Cc3ccc[nH]c3=O)c(=O)n2Cc2cc(Cl)c(F)c(Cl)c2)cc1 [Compound I-0227]	< 100 nM	1000 to 10000 nM		
CNc1nc2ccc(Nc3nc(=O)n(-c4cncc(Cl)c4)c(=O)n3Cc3cc(C#N)ccc3C)cc2s1 [II-0383]	< 100 nM	< 1000 nM		
Cc1cncc(-n2c(=O)nc(Nc3cc4cn(CC(F)F)nc4cc3Cl)n(Cc3cc(C#N)c(F)cn3)c2=O)c1 [II-0533]	< 100 nM	1000 to 10000 nM		
CNC(=O)Cn1cc2cc(Nc3nc(=O)n(-c4cncc5ccccc45)c(=O)n3Cc3cc(F)c(F)c(F)c3)c(Cl)cc2n1 [II-0509]	< 100 nM	1000 to 10000 nM		
N#Cc1cc(Cn2c(Nc3ccc4nn(CC(F)F)cc4c3)nc(=O)n(-c3cncc4ccccc34)c2=O)ccc1F [Compound I-0352]	< 100 nM	< 1000 nM		
Cc1c2cc(Nc3nc(=O)n(Cc4ncn(C)n4)c(=O)n3Cc3cc(F)c(F)c(Cl)c3)c(Cl)cc2nn1C [II-0438]	< 100 nM	1000 to 10000 nM		
Cc1c2cc(Nc3nc(=O)n(-c4cncc(Cl)c4)c(=O)n3Cc3ccc(F)c(C#N)c3)ccc2nn1C [II-0267]	< 100 nM	1000 to 10000 nM		
Cn1cnc(Cn2c(=O)nc(Nc3cc4cn(CC(=O)OC(C)(C)C)nc4cc3Cl)n(Cc3cc(Cl)c(F)cc3F)c2=O)n1 [II-0309]	< 100 nM	1000 to 10000 nM		
Cc1ccc(C#N)cc1Cn1c(Nc2cc3cn(C)nc3cc2F)nc(=O)n(-c2cncc(Cl)c2)c1=O [II-0097]	< 100 nM	< 1000 nM		
Cc1cncc(-n2c(=O)nc(Nc3cc4cn(C)nc4cc3Cl)n(Cc3cc(F)cc(C#N)c3)c2=O)c1 [II-0161]	< 100 nM	< 1000 nM		
Cn1cnc(Cn2c(=O)nc(Nc3cc4sc(NCC(F)F)nc4cc3Cl)n(Cc3cc(Cl)c(F)cc3F)c2=O)n1 [II-0262]	< 100 nM	1000 to 10000 nM		
COC(=O)Nc1nc2cc(Cl)c(Nc3nc(=O)n(-c4cncc(C)c4)c(=O)n3Cc3ccc(F)c(C#N)c3)cc2s1 [II-0074]			3.6 nM	248 nM
CCOc1ccc(Nc2nc(=O)n(Cc3ccc[nH]c3=O)c(=O)n2Cc2cc(F)c(F)c(F)c2)c(Cl)c1 [Compound I-0242]	< 100 nM	< 1000 nM		
Cn1cnc(Cn2c(=O)nc(Nc3cc4cn(CC(=O)N5CCOCC5)nc4cc3Cl)n(Cc3cc(Cl)c(F)cc3F)c2=O)n1 [II-0132]			2.5 nM	49800 nM
Cc1cncc(-n2c(=O)nc(Nc3cc4cn(C(C)C)nc4cc3Cl)n(Cc3ccc(F)c(C#N)c3)c2=O)c1 [II-0544]	< 100 nM	< 1000 nM		
Cc1cncc(-n2c(=O)nc(Nc3cc4cn(C)nc4cc3Cl)n(Cc3cc(F)c(F)cc3Cl)c2=O)c1 [II-0402]	< 100 nM	< 1000 nM		

SMILES	IC50 (SARS-CoV-2 3CL protease; given as class symbols)	EC50 (SARS-CoV-2; class symbols)	IC50 (SARS-CoV-2 3CL protease; RapidFire MS)	EC50 (SARS-CoV-2; CellTiter-Glo 2.0)
Cc1cncc(-n2c(=O)nc(Nc3cc4cn(C)nc4cc3Cl)n(Cc3ccc(F)c(C#N)c3C)c2=O)c1 [II-0020]	< 100 nM	1000 to 10000 nM		
Cc1cncc(-n2c(=O)nc(Nc3ccc4nn(C)cc4c3)n(Cc3cc(C#N)c(F)cc3C)c2=O)c1 [II-0290]			3.5 nM	210 nM
Cn1cnc(Cn2c(=O)nc(Nc3cc4cn(C)nc4cc3Cl)n(Cc3cc(F)c(F)c(F)c3F)c2=O)n1 [Compound I-0483]			9.8 nM	395 nM
COc1ccc(Nc2nc(=O)n(Cc3ccc[nH]c3=O)c(=O)n2CC2CCCCC2)cc1 [Compound I-0134]	1000 to 10000 nM	< 1000 nM	4000 nM	
CC(=O)Nc1nc2cc(Cl)c(Nc3nc(=O)n(Cc4ncn(C)n4)c(=O)n3Cc3cc(F)c(F)cc3F)cc2s1 [II-0560]	< 100 nM	1000 to 10000 nM		
CNc1nc2ccc(Nc3nc(=O)n(-c4cncc(Cl)c4)c(=O)n3Cc3cc(F)c(F)c(C#N)c3)cc2s1 [II-0387]	< 100 nM	< 1000 nM		
C=Cc1cc(F)c(F)cc1Cn1c(Nc2cc3cn(C)nc3cc2Cl)nc(=O)n(-c2cncc(C)c2)c1=O [II-0067]	< 100 nM	< 1000 nM		
CC(C)n1cc2cc(Nc3nc(=O)n(Cc4ncn(C)n4)c(=O)n3Cc3cc(F)c(F)cc3F)c(Cl)cc2n1 [II-0285]	< 100 nM	< 1000 nM		
Cc1nc2cc(Cl)c(Nc3nc(=O)n(Cc4cc5ccsc5[nH]c4=O)c(=O)n3Cc3cc(F)c(F)c(F)c3)cc2n1C [Compound I-0390]	< 100 nM	1000 to 10000 nM	4 nM	3160 nM
Cn1cnc(Cn2c(=O)nc(Nc3cc4cn(CC(F)F)nc4cc3Cl)n(Cc3cc(F)c(F)c(Cl)c3)c2=O)n1 [II-0572]			5.6 nM	925 nM
Cc1cncc(-n2c(=O)nc(Nc3ccc4c(c3)CCO4)n(Cc3cc(F)c(F)c(F)c3)c2=O)c1 [II-0203]	< 100 nM	< 1000 nM		
Cn1cnc(Cn2c(=O)nc(Nc3cc4cn(C)nc4cc3Cl)n(Cc3cc(Cl)c(F)c(Cl)c3)c2=O)n1 [II-0584]			4.8 nM	750 nM
COc1ccc(Nc2nc(=O)n(Cc3ccc[nH]c3=O)c(=O)n2Cc2cc(F)c(F)c(F)c2)c(Br)c1 [Compound I-0166]	< 100 nM	< 1000 nM		
C#Cc1cc(F)c(F)cc1Cn1c(Nc2cc3cn(C)nc3cc2Cl)nc(=O)n(-c2cncc(C)c2)c1=O [II-0065]	< 100 nM	< 1000 nM		
Cn1cnc(Cn2c(=O)nc(Nc3cc4c(N5CCCC5)n(C)nc4cc3Cl)n(Cc3cc(F)c(F)c(F)c3)c2=O)n1 [II-0453]	< 100 nM	1000 to 10000 nM		
CNc1cncc(-n2c(=O)nc(Nc3cc4cn(C)nc4cc3Cl)n(Cc3cc(F)c(F)cc3F)c2=O)c1 [II-0600]	< 100 nM	< 1000 nM		
Cn1cnc(Cn2c(=O)nc(Nc3cc4cn(C)nc4cc3Cl)n(Cc3cc(F)c(F)cc3Cl)c2=O)n1 [II-0405]	< 100 nM	< 1000 nM		
Cc1cncc(-n2c(=O)nc(Nc3cc4cn(C)nc4cc3F)n(Cc3cc(C#N)c(F)cc3C)c2=O)c1 [II-0504]	< 100 nM	< 1000 nM		
